This is an account of results in paper PMC8147984, “Effects of Sponge-Derived Alkaloids on Activities of the Bacterial α-D-Galactosidase and Human Cancer Cell α-N-Acetylgalactosaminidase” (Biomedicines, 2021).

The target of the assay is T1, α-D-galactosidase (α-PsGal) (Pseudoalteromonas sp. KMM 701, UniProt Q19AX0).
T1 sequence (Q19AX0 1-710): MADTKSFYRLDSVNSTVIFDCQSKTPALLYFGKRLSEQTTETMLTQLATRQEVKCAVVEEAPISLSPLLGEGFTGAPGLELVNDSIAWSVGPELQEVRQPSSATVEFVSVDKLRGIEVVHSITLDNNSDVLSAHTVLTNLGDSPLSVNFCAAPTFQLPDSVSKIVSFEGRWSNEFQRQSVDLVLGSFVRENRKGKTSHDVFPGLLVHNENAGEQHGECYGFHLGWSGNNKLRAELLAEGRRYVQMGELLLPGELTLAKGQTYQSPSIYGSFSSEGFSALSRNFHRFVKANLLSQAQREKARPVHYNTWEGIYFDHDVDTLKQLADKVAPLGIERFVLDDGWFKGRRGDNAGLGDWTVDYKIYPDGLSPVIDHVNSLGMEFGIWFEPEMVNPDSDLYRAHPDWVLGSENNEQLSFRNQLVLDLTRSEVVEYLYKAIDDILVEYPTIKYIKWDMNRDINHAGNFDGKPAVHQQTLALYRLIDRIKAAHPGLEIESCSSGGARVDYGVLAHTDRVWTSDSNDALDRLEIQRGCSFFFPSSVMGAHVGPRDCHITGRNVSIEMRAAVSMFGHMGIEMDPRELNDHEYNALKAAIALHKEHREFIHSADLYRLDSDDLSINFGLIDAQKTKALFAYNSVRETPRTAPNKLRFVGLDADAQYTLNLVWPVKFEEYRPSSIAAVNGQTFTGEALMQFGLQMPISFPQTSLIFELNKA
Nature of the assay: Inhibitory potency on recombinant α-PsGal (residual activity). To be noted: compound concentration 1.67 mM; preincubated 30 min, 20 °C, pH 7.0. It counts as biochemical. On the procedure:
The recombinant wild-type α-D-galactosidase (α-PsGal) was produced as described earlier. The plasmid DNA pET-40b(+) containing insertion of the gene from the marine bacterium Pseudoalteromonas sp. KMM 701 encoding α-PsGal was transformed in the Escherichia coli strain Rosetta (DE3). Heterological expression was carried out at optimal conditions as described earlier. Purification of the recombinant […] was performed, according to described procedures. The purification quality was controlled by 12% Laemmli-SDS-PAGE-electrophoresis.
The activity of α-PsGal and α-NaGalase were determined by increasing the amount of p-nithrophenol (pNP). To assay the α-NaGalase activity 0.05 mL of cell extract and 0.1 mL of substrate pNPNA-α-Gal (8.8 mM) in 0.05 M sodium citrate buffer, pH 5.0 were placed in cells of 96-well plate and incubated at 37 °C for 30 min. The mixtures containing 0.05 mL of an enzyme solution and 0.1 mL of a substrate solution (3.3 mM) in 0.05 M sodium phosphate buffer (pH 7.0) were incubated at 20 °C during 5 min for determination of α-PsGal standard activity. The reactions were stopped by the addition of 0.15 mL of 1 M Na2CO3 solution.
Absorbance was measured at 400 nm. Results were read with a computer program Gen5 and treated with ExCel computer program. The unit of standard activity (U) was defined as the amount of the enzyme catalyzing the formation of 1 µmol of p-nitrophenol (ε400 = 18,300 M^−1 cm^−1) per 1 min under the conditions indicated. Specific activity (A) was calculated as the enzyme activity (U) per 1 mg of protein. All calculations were based on reactions with consumption of 10% of the chromogenic substrate. The protein concentrations were estimated by the Bradford method with BSA as a standard. Residual activity (%) was calculated with formula: Residual activity (%) = v/v0 ×100, where v is the initial reaction rate of enzymes under the action of an inhibitor or other factors, v0 is the initial reaction rate of enzymes in the absence of the influence of any factors. Buffer solutions of α-PsGal (0.1 U/mL) and α-NaGalase (0.01 U/mL) were used in the further experiments.
In the control sample, 5 μL of water or 2 μL of EtOH were added to 25 μL of enzyme solution. The enzyme reaction was initiated by adding 120 μL of the substrate pNP-α-Gal (3.3 mM) for α-PsGal or pNPNA-α-Gal (8.8 mM) for α-NaGalase in the respective buffer solutions. After 10 min for α-PsGal or 60 min for α-NaGalase the reaction was stopped by adding 150 μL of 1 M Na2CO3. The amount of pNP was quantified by spectrophotometric detection at 400 nm. Results were evaluated as the percent of residual activity as described above.

Regarding `COc1cc2ccnc3c2c(c1O)NC=C3` [Compound 3, 9-demethylaaptamine], the “Residual activity v/v0 (%) of the α-PsGal” value is given as 0 ^1%. For the compound `COc1cc2ccnc3c2c(c1O)N(C)C=C3` [Compound 2, isoaaptamine], the “Residual activity v/v0 (%) of the α-PsGal” value is recorded as 0 ^1%.
